Data as given in the supplement of paper PMC10307832.

How the values were obtained:
Assay in all cases: relative viability (nuclei count vs DMSO), 5 days (fraction); higher = more cells survive
[1] = system: SW 1573
Summary of the method: (§1)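 Values are medians from duplicate plates. Each reflects relative viability, defined as the nuclei count of treated wells over that of vehicle wells. Lung cancer cell lines in 1536-well plates were pin-tool dosed one day after seeding with one drug alone or with a fixed anchor-drug dose plus five library-drug doses (not always all listed) in √10 steps, then fixed, stained and imaged at 4× after 5 days.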

[2] = system: NCI-H23
Summary of the method: as §1

[3] = system: LCLC-103H
Summary of the method: as §1

[4] = system: LU99A
Summary of the method: as §1

[5] = system: A-427
Summary of the method: as §1

[6] = system: PC-3 [JPC-3]
Summary of the method: as §1

[7] = system: NCI-H1793
Summary of the method: as §1

[8] = system: NCI-H727
Summary of the method: as §1

[9] = system: NCI-H1650
Summary of the method: as §1

[10] = system: H3255
Summary of the method: as §1

[11] = system: 201T
Summary of the method: as §1

[12] = system: LK-2; conditions: first compound 0.08 µM
Summary of the method: as §1

Structure (SMILES): C=C1C(=O)O[C@@H](CCCCCCCC)[C@@H]1C(=O)O [C-75] + CCNC(=O)c1noc(-c2cc(C(C)C)c(O)cc2O)c1-c1ccc(CN2CCOCC2)cc1 [Luminespib] (partner 0.01 µM)
- relative viability ([1]; first compound 0.08 µM): 0.168
- relative viability ([1]; first compound 0.253 µM): 0.254
- relative viability ([1]; first compound 0.8 µM): 0.207
- relative viability ([1]; first compound 2.53 µM): 0.216
- relative viability ([1]; first compound 8 µM): 0.157
- relative viability ([2]; first compound 0.08 µM): 0.246
- relative viability ([2]; first compound 0.253 µM): 0.206
- relative viability ([2]; first compound 0.8 µM): 0.198
- relative viability ([2]; first compound 2.53 µM): 0.222
- relative viability ([2]; first compound 8 µM): 0.209
- relative viability ([3]; first compound 0.08 µM): 0.912
- relative viability ([3]; first compound 0.253 µM): 1.02
- relative viability ([3]; first compound 0.8 µM): 0.83
- relative viability ([3]; first compound 2.53 µM): 0.932
- relative viability ([3]; first compound 8 µM): 0.888
- relative viability ([4]; first compound 0.08 µM): 0.209
- relative viability ([4]; first compound 0.253 µM): 0.297
- relative viability ([4]; first compound 0.8 µM): 0.251
- relative viability ([4]; first compound 2.53 µM): 0.252
- relative viability ([4]; first compound 8 µM): 0.286
- relative viability ([5]; first compound 0.08 µM): 0.931
- relative viability ([5]; first compound 0.253 µM): 0.788
- relative viability ([5]; first compound 0.8 µM): 0.922
- relative viability ([5]; first compound 2.53 µM): 0.842
- relative viability ([5]; first compound 8 µM): 0.703
- relative viability ([6]; first compound 0.08 µM): 0.678
- relative viability ([6]; first compound 0.253 µM): 0.667
- relative viability ([6]; first compound 0.8 µM): 0.739
- relative viability ([6]; first compound 2.53 µM): 0.533
- relative viability ([6]; first compound 8 µM): 0.895
- relative viability ([7]; first compound 0.08 µM): 0.18
- relative viability ([7]; first compound 0.253 µM): 0.148
- relative viability ([7]; first compound 0.8 µM): 0.141
- relative viability ([7]; first compound 2.53 µM): 0.264
- relative viability ([7]; first compound 8 µM): 0.224
- relative viability ([8]; first compound 0.08 µM): 0.371
- relative viability ([8]; first compound 0.253 µM): 0.358
- relative viability ([8]; first compound 0.8 µM): 0.312
- relative viability ([8]; first compound 8 µM): 0.484
- relative viability ([9]; first compound 0.08 µM): 0.215
- relative viability ([9]; first compound 0.253 µM): 0.194
- relative viability ([9]; first compound 2.53 µM): 0.141
- relative viability ([9]; first compound 8 µM): 0.211
- relative viability ([10]; first compound 0.08 µM): 0.935
- relative viability ([10]; first compound 0.253 µM): 1.02
- relative viability ([10]; first compound 0.8 µM): 0.794
- relative viability ([10]; first compound 2.53 µM): 0.723
- relative viability ([10]; first compound 8 µM): 0.977
- relative viability ([11]; first compound 0.08 µM): 1.07
- relative viability ([11]; first compound 0.253 µM): 1.08
- relative viability ([11]; first compound 0.8 µM): 1.07
- relative viability ([11]; first compound 2.53 µM): 1.04
- relative viability ([11]; first compound 8 µM): 1.06
- relative viability [12]: 0.193
